Experimental data reported in the NIST ThermoML archive (doi:10.1016/j.jct.2014.05.014).
Numbers after ± are expanded uncertainties.

Assay: cn = amount concentration of the nth substance listed, in mol/dm3
Conditions: 101.3 kPa, Liquid; for electrical conductivity: Alternating current cell with electrodes; for viscosity: Falling or rolling sphere viscometry; for mass density: Vibrating tube method

CC(N)C(=O)[O-].[Na+] (stereo not drawn) [sodium DL-alaninate] + O
Conditions | electrical conductivity [S/m] | mass density [kg/m3] | viscosity [mPa·s]
303.15 K, c1 = 0.478 | – | – | 0.98 ± 0.021
303.15 K, c1 = 0.498 | 2.82 ± 0.06 | 1021.4 ± 1.6 | –
303.15 K, c1 = 0.985 | – | 1045.4 ± 1.7 | –
303.15 K, c1 = 0.99 | 4.45 ± 0.09 | – | –
303.15 K, c1 = 0.994 | – | – | 1.232 ± 0.027
303.15 K, c1 = 1.485 | 5.36 ± 0.11 | – | –
303.15 K, c1 = 1.495 | – | 1069 ± 1.7 | 1.579 ± 0.036
303.15 K, c1 = 1.975 | – | 1090.8 ± 1.8 | 2.011 ± 0.049
303.15 K, c1 = 1.983 | 5.78 ± 0.12 | – | –
303.15 K, c1 = 2.467 | – | 1113.1 ± 2 | –
303.15 K, c1 = 2.476 | 5.77 ± 0.12 | – | –
303.15 K, c1 = 2.496 | – | – | 2.683 ± 0.071
303.15 K, c1 = 3.032 | – | – | 3.708 ± 0.1
303.15 K, c1 = 3.048 | 5.43 ± 0.11 | – | –
303.15 K, c1 = 3.063 | – | 1139.4 ± 2.1 | –
308.15 K, c1 = 0.478 | – | – | 0.877 ± 0.019
308.15 K, c1 = 0.498 | 3.11 ± 0.07 | 1019.6 ± 1.6 | –
308.15 K, c1 = 0.985 | – | 1043.4 ± 1.7 | –
308.15 K, c1 = 0.99 | 4.92 ± 0.1 | – | –
308.15 K, c1 = 0.994 | – | – | 1.099 ± 0.024
308.15 K, c1 = 1.485 | 5.94 ± 0.12 | – | –
308.15 K, c1 = 1.495 | – | 1066.9 ± 1.7 | 1.423 ± 0.032
308.15 K, c1 = 1.975 | – | 1088.5 ± 1.8 | 1.771 ± 0.042
308.15 K, c1 = 1.983 | 6.45 ± 0.13 | – | –
308.15 K, c1 = 2.467 | – | 1110.7 ± 2 | –
308.15 K, c1 = 2.476 | 6.48 ± 0.13 | – | –
308.15 K, c1 = 2.496 | – | – | 2.341 ± 0.061
308.15 K, c1 = 3.032 | – | – | 3.187 ± 0.086
308.15 K, c1 = 3.048 | 6.17 ± 0.12 | – | –
308.15 K, c1 = 3.063 | – | 1136.8 ± 2.1 | –
313.15 K, c1 = 0.478 | – | – | 0.796 ± 0.017
313.15 K, c1 = 0.498 | 3.42 ± 0.07 | 1017.7 ± 1.6 | –
313.15 K, c1 = 0.985 | – | 1041.4 ± 1.7 | –
313.15 K, c1 = 0.99 | 5.41 ± 0.11 | – | –
313.15 K, c1 = 0.994 | – | – | 0.991 ± 0.022
313.15 K, c1 = 1.485 | 6.54 ± 0.13 | – | –
313.15 K, c1 = 1.495 | – | 1064.7 ± 1.7 | 1.243 ± 0.028
313.15 K, c1 = 1.975 | – | 1086.1 ± 1.8 | 1.574 ± 0.038
313.15 K, c1 = 1.983 | 7.13 ± 0.14 | – | –
313.15 K, c1 = 2.467 | – | 1108.2 ± 1.9 | –
313.15 K, c1 = 2.476 | 7.22 ± 0.14 | – | –
313.15 K, c1 = 2.496 | – | – | 2.06 ± 0.053
313.15 K, c1 = 3.032 | – | – | 2.765 ± 0.073
313.15 K, c1 = 3.048 | 6.94 ± 0.14 | – | –
313.15 K, c1 = 3.063 | – | 1134 ± 2.1 | –
318.15 K, c1 = 0.478 | – | – | 0.721 ± 0.016
318.15 K, c1 = 0.498 | 3.72 ± 0.08 | 1015.7 ± 1.6 | –
318.15 K, c1 = 0.985 | – | 1039.3 ± 1.7 | –
318.15 K, c1 = 0.99 | 5.89 ± 0.12 | – | –
318.15 K, c1 = 0.994 | – | – | 0.895 ± 0.02
318.15 K, c1 = 1.485 | 7.14 ± 0.15 | – | –
318.15 K, c1 = 1.495 | – | 1062.3 ± 1.7 | 1.122 ± 0.025
318.15 K, c1 = 1.975 | – | 1083.7 ± 1.8 | 1.405 ± 0.033
318.15 K, c1 = 1.983 | 7.82 ± 0.16 | – | –
318.15 K, c1 = 2.467 | – | 1105.5 ± 1.9 | –
318.15 K, c1 = 2.476 | 7.98 ± 0.16 | – | –
318.15 K, c1 = 2.496 | – | – | 1.821 ± 0.046
318.15 K, c1 = 3.032 | – | – | 2.426 ± 0.064
318.15 K, c1 = 3.048 | 7.72 ± 0.16 | – | –
318.15 K, c1 = 3.063 | – | 1131.3 ± 2.1 | –
323.15 K, c1 = 0.478 | – | – | 0.661 ± 0.014
323.15 K, c1 = 0.498 | 4.04 ± 0.08 | 1013.4 ± 1.6 | –
323.15 K, c1 = 0.985 | – | 1036.9 ± 1.7 | –
323.15 K, c1 = 0.99 | 6.38 ± 0.13 | – | –
323.15 K, c1 = 0.994 | – | – | 0.817 ± 0.018
323.15 K, c1 = 1.485 | 7.76 ± 0.16 | – | –
323.15 K, c1 = 1.495 | – | 1059.8 ± 1.7 | 1.014 ± 0.023
323.15 K, c1 = 1.975 | – | 1081.1 ± 1.8 | 1.268 ± 0.03
323.15 K, c1 = 1.983 | 8.52 ± 0.17 | – | –
323.15 K, c1 = 2.467 | – | 1102.8 ± 1.9 | –
323.15 K, c1 = 2.476 | 8.73 ± 0.17 | – | –
323.15 K, c1 = 2.496 | – | – | 1.629 ± 0.041
323.15 K, c1 = 3.032 | – | – | 2.146 ± 0.056
323.15 K, c1 = 3.048 | 8.52 ± 0.17 | – | –
323.15 K, c1 = 3.063 | – | 1128.4 ± 2.1 | –
328.15 K, c1 = 0.478 | – | – | 0.606 ± 0.013
328.15 K, c1 = 0.498 | 4.37 ± 0.09 | 1011.1 ± 1.6 | –
328.15 K, c1 = 0.985 | – | 1034.5 ± 1.7 | –
328.15 K, c1 = 0.99 | 6.87 ± 0.14 | – | –
328.15 K, c1 = 0.994 | – | – | 0.75 ± 0.016
328.15 K, c1 = 1.485 | 8.38 ± 0.17 | – | –
328.15 K, c1 = 1.495 | – | 1057.3 ± 1.7 | 0.924 ± 0.021
328.15 K, c1 = 1.975 | – | 1078.4 ± 1.8 | 1.148 ± 0.027
328.15 K, c1 = 1.983 | 9.22 ± 0.19 | – | –
328.15 K, c1 = 2.467 | – | 1100.2 ± 1.9 | –
328.15 K, c1 = 2.476 | 9.5 ± 0.19 | – | –
328.15 K, c1 = 2.496 | – | – | 1.467 ± 0.037
328.15 K, c1 = 3.032 | – | – | 1.912 ± 0.049
328.15 K, c1 = 3.048 | 9.33 ± 0.19 | – | –
328.15 K, c1 = 3.063 | – | 1125.4 ± 2.1 | –
333.15 K, c1 = 0.478 | – | – | 0.559 ± 0.012
333.15 K, c1 = 0.498 | 4.68 ± 0.1 | 1008.7 ± 1.6 | –
333.15 K, c1 = 0.985 | – | 1032 ± 1.7 | –
333.15 K, c1 = 0.99 | 7.37 ± 0.15 | – | –
333.15 K, c1 = 0.994 | – | – | 0.687 ± 0.015
333.15 K, c1 = 1.485 | 8.99 ± 0.18 | – | –
333.15 K, c1 = 1.495 | – | 1054.6 ± 1.7 | 0.847 ± 0.019
333.15 K, c1 = 1.975 | – | 1075.7 ± 1.8 | 1.047 ± 0.025
333.15 K, c1 = 1.983 | 9.93 ± 0.2 | – | –
333.15 K, c1 = 2.467 | – | 1097.2 ± 1.9 | –
333.15 K, c1 = 2.476 | 10.3 ± 0.21 | – | –
333.15 K, c1 = 2.496 | – | – | 1.326 ± 0.033
333.15 K, c1 = 3.032 | – | – | 1.718 ± 0.044
333.15 K, c1 = 3.048 | 10.1 ± 0.2 | – | –
333.15 K, c1 = 3.063 | – | 1122.4 ± 2.1 | –
338.15 K, c1 = 0.478 | – | – | 0.52 ± 0.011
338.15 K, c1 = 0.498 | 5.01 ± 0.1 | 1006 ± 1.6 | –
338.15 K, c1 = 0.985 | – | 1029.3 ± 1.7 | –
338.15 K, c1 = 0.99 | 7.87 ± 0.16 | – | –
338.15 K, c1 = 0.994 | – | – | 0.638 ± 0.014
338.15 K, c1 = 1.485 | 9.62 ± 0.2 | – | –
338.15 K, c1 = 1.495 | – | 1051.8 ± 1.7 | 0.778 ± 0.017
338.15 K, c1 = 1.975 | – | 1072.9 ± 1.8 | 0.96 ± 0.022
338.15 K, c1 = 1.983 | 10.7 ± 0.21 | – | –
338.15 K, c1 = 2.467 | – | 1094.3 ± 1.9 | –
338.15 K, c1 = 2.476 | 11 ± 0.22 | – | –
338.15 K, c1 = 2.496 | – | – | 1.206 ± 0.03
338.15 K, c1 = 3.032 | – | – | 1.546 ± 0.039
338.15 K, c1 = 3.048 | 11 ± 0.22 | – | –
338.15 K, c1 = 3.063 | – | 1119.4 ± 2.1 | –
343.15 K, c1 = 0.478 | – | – | 0.484 ± 0.01
343.15 K, c1 = 0.498 | 5.34 ± 0.11 | 1003.1 ± 1.6 | –
343.15 K, c1 = 0.985 | – | 1026.4 ± 1.7 | –
343.15 K, c1 = 0.99 | 8.38 ± 0.17 | – | –
343.15 K, c1 = 0.994 | – | – | 0.591 ± 0.013
343.15 K, c1 = 1.485 | 10.2 ± 0.21 | – | –
343.15 K, c1 = 1.495 | – | 1049 ± 1.7 | 0.729 ± 0.016
343.15 K, c1 = 1.975 | – | 1069.9 ± 1.8 | 0.881 ± 0.02
343.15 K, c1 = 1.983 | 11.3 ± 0.23 | – | –
343.15 K, c1 = 2.467 | – | 1091.2 ± 1.9 | –
343.15 K, c1 = 2.476 | 11.8 ± 0.24 | – | –
343.15 K, c1 = 2.496 | – | – | 1.102 ± 0.027
343.15 K, c1 = 3.032 | – | – | 1.408 ± 0.035
343.15 K, c1 = 3.048 | 11.8 ± 0.24 | – | –
343.15 K, c1 = 3.063 | – | 1116.2 ± 2.1 | –
